Measurements taken from patent publication US20220372013A2, “PIPERIDINE-2,6-DIONE DERIVATIVES AND CROHN'S DISEASE TREATING” (Tianjin Hemay Pharmaceutical Sci-Tech Co., Ltd, priority 2016, published 2022).
Where two headings read alike, the source gives them in different places. Marks after values point to notes of the source that are not given here.

Tests used:
[1] = system: DNBS-Induced Inflammatory Bowel Disease Models in Rats; experiment: Biological Example 3: DNBS-induced inflammatory bowel disease models in rats; format: in vivo, Wistar rats; details: 30 mg/Kg i.g. qd × 7; for Body weight: Mean ± SD
Procedure: (§1) 102 male Wistar rats were fasted for 40 hours. A 5% glucose injection (10 mL/Kg) was administered subcutaneously during fasting. 72 rats with normal conditions and moderate body weight were selected from the fasting rats. The animals were randomly divided into 9 groups according to the body weight (see Table 9. Grouped Table).
(§2) The animals were anesthetized with ether after 40 hours fasting. A specially made gavage device was slowly inserted into the enteric cavity at 8 cm from the anus. The model control group and each test group were administered with 0.5 mL of 50 mg/mL DNBS in 30% ethanol solution. The normal control group was administered with 0.5 mL of 30% ethanol solution. The animals were inverted in anesthesia for 15 minutes. The day when the model was prepared was day 0 of the experiment. After 4 hours of DNBS induction, the corresponding drug or the corresponding volume of 1% CMC-Na was administered once per day. On day 7 of the experiment, the animals were euthanized to score the colon adhesion degree, measure the length of colon and ulcer area, weigh colon and calculate the colon weight to length ratio.
(§3) One-way ANOVA analysis of the length of colon and colon weight per length of rats was performed by SPSS22. Statistical analyses between groups were performed. The adhesion degree was scored. Mann-Whitney U non-parametric test was performed on ulcer area. Statistical analyses between groups were performed.
(§4) Calculation Formula of Inhibitory rate of weight increase per length: (Colon weight to length ratio in model group−Colon weight to length ratio in administration group)/(Colon weight to length ratio in model group−Colon weight to length ratio in blank group)

[2] = system: DNBS-Induced Inflammatory Bowel Disease Models in Rats; experiment: Biological Example 4: DNBS-induced inflammatory bowel disease models in rats; format: in vivo, Wistar rats; details: 30 mg/Kg i.g. qd × 7; for Body weight: Mean ± SD; for inhibition in vivo at 30 mg/kg: Rattus norvegicus, po, 168 h
Procedure: as §1, with “72” for “40”, “injection” for “injection (10 mL/Kg)”, “subcutaneously twice” for “subcutaneously”, “88” for “72”, “11” for “9”, “11.” for “9.”
as §2, with “72” for “40”
as §3, §4

## COCCN1C(=O)CCC(N2C(=O)c3cccc(N)c3C2=O)C1=O (stereo not shown) [Example 27, 4-amino-2-(1-(2-methoxyethyl)-2,6-dioxopiperidin-3-yl)isoindolin-1,3-dione]
[1]; day 7
  Adhesion Degree of Colon: 0.9 ± 0.4 point
  Colon weight to length ratio: 109 ± 12 mg/cm
  Inhibitory rate of colon adhesion: 47.1# %
  Inhibitory rate of ulcer area of colon: 99.7## %
  Inhibitory rate of weight increase per length: 58.2## %
  Ulcer area of colon: 0.01 ± 0.02## cm^2
[1]; Day 0
  Body weight: 135.4 ± 4.9 g
[1]; Day 1
  Body weight: 135.2 ± 4.2 g
[1]; Day 2
  Body weight: 136.7 ± 5.0 g
[1]; Day 3
  Body weight: 141.7 ± 7.5 g
[1]; Day 4
  Body weight: 150.1 ± 9.2 g
[1]; Day 5
  Body weight: 159.1 ± 10.3 g
[1]; Day 6
  Body weight: 165.2 ± 10.0 g
[1]; Day 7
  Body weight: 175.8 ± 8.2 g
[2]; day 7
  Colon weight to length ratio: 106 ± 14 mg/cm
  Ulcer area of colon: 0.4 ± 0.6 cm^2
[2]; Day 1
  Body weight: 125.5 ± 8.4 g
[2]; Day 2
  Body weight: 124.4 ± 8.1 g
[2]; Day 3
  Body weight: 125.8 ± 8.2 g
[2]; Day 4
  Body weight: 133.1 ± 9.2 g
[2]; Day 5
  Body weight: 141.6 ± 12.0 g
[2]; Day 6
  Body weight: 146.7 ± 11.8 g
[2]; Day 7
  Body weight: 156.3 ± 11.0 g
[2]; day 7, read-out: Inhibitory rate of ulcer area of colon
  inhibition in vivo at 30 mg/kg: 83.3%
[2]; day 7, read-out: Inhibitory rate of weight increase per length
  inhibition in vivo at 30 mg/kg: 65.9%
